As a reminder, the Kd is the constant that tells how readily two partners part at equilibrium.

For this assay, the target named is T1, E3 ubiquitin-protein ligase XIAP [241-356] (Homo sapiens, UniProt P98170).
T1 construct: 241-356
Briefly: Ligand Binding Assay. Particulars: pH 7.4; 22 °C. The protocol:
A fluorescence polarization anisotropy (FPA) competition assay was used to determine the affinities of compounds to BIR3 protein. Fluorescence polarization measurements were carried out on an Analyst 96-well plate reader. 6-Carboxyfluorescein (FAM) labeled peptides with the sequences AVPIAQK (FAM)-NH2 was used as a probe. Dissociation constants were determined from titration curves with in-house written software.

SMILES strings stand for the structures. Square brackets hold non-standard residues; d marks the D form. Peptide text beside a SMILES is read from it. * marks the point of attachment. Tle = CC(C)(C)[C@H](N)C(=O)O; NMeA = CN[C@@H](C)C(=O)O; βNA = c1ccc2cc(N*)ccc2c1

T1 sequence (P98170 241-356): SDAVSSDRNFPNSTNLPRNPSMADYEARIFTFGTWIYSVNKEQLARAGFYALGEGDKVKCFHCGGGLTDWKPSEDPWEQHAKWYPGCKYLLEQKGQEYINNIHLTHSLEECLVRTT

`C[C@@H](C(=O)N[C@H](C(=O)N1CCC[C@H]1C(=O)N[C@@H]1CCCc2ccccc21)C(C)(C)C)N(C)C` [(2S)-1-[(2S)-2-[(2S)-2-(dimethylamino)propanamido]-3,3-dimethylbutanoyl]-N-[(1R)-1,2,3,4-tetrahydronaphthalen-1-yl]pyrrolidine-2-carboxamide] returned a Kd of more than 1 µM.
`C[C@@H](C(=O)N[C@H](C(=O)N1CCC[C@H]1C(=O)N[C@@H]1CCCc2ccccc21)C1CCCCC1)N(C)C` [(2S)-1-[(2S)-2-cyclohexyl-2-[(2S)-2-(dimethylamino)propanamido]acetyl]-N-[(1R)-1,2,3,4-tetrahydronaphthalen-1-yl]pyrrolidine-2-carboxamide] had a dissociation constant (Kd) of more than 1 µM.
Under `CN[C@@H](C)C(=O)N[C@H](C(=O)N1CCC[C@H]1C(=O)Nc1ccc2ccccc2c1)C(C)(C)C` [(2S)-1-[(2S)-3,3-dimethyl-2-[(2S)-2-(methylamino)propanamido]butanoyl]-N-(naphthalen-2-yl)pyrrolidine-2-carboxamide] (H-[NMeA]-[Tle]-Pro-βNA) stands more than 1 µM; under `CN[C@@H](C)C(=O)N[C@H](C(=O)N1CCC[C@H]1C(=O)N[C@@H]1CCc2ccccc21)C(C)(C)C` [(2S)-N-[(1R)-2,3-dihydro-1H-inden-1-yl]-1-[(2S)-3,3-dimethyl-2-[(2S)-2-(methylamino)propanamido]butanoyl]pyrrolidine-2-carboxamide], 0.029 µM; under `C[C@@H](C(=O)N[C@H](C(=O)N1C[C@@H](Oc2ccccc2)C[C@H]1C(=O)N[C@@H]1CCCc2ccccc21)C(C)(C)C)N(C)C` [(2S,4S)-1-[(2S)-2-[(2S)-2-(dimethylamino)propanamido]-3,3-dimethylbutanoyl]-4-phenoxy-N-[(1R)-1,2,3,4-tetrahydronaphthalen-1-yl]pyrrolidine-2-carboxamide], more than 1 µM.
On to `CN[C@@H](C)C(=O)N[C@H](C(=O)N1CCC[C@H]1C(=O)N[C@H]1CCc2ccccc21)C(C)(C)C` [H-N-Me-Ala-Tle-Pro-(S)-indan-1-yl Amide], for which the Kd is more than 1 µM.
As to `CN[C@@H](C)C(=O)N[C@H](C(=O)N1CCC[C@H]1C(=O)NC1c2ccccc2-c2ccccc21)C(C)(C)C` [H-N-Me-Ala-Tle-Pro-fluoren-9-yl Amide], the affinity, expressed as Kd, was 0.047 µM.
As to `CN[C@@H](C)C(=O)N[C@H](C(=O)N1CCC[C@H]1C(=O)Nc1cccc2ccccc12)C(C)(C)C` [H-N-Me-Ala-Tle-Pro-naphth-1-yl Amide], the equilibrium dissociation constant (Kd) was more than 0.5 µM.

Source of the values: BindingDB's records for doi:10.1021/jm040037k (Abbott Laboratories, 2004).
